Key:
[1] = test system: patient-derived tumor (LI-03-0020) xenograft; experiment: Liver cancer patient-derived tumor xenograft; assay type: in vivo, Balb/c nude mice; conditions: for T/C / TGI / Tumor volume at Day 21: liver cancer PDX model; for T/C / TGI: Day 21
[2] = test system: HUVECs; experiment: VEGF-induced HUVECs proliferation; assay type: cell-based; conditions: Homo sapiens, HUVEC, 72 h, read-out: IC50 HUVECs
[3] = test system: HBVPs; experiment: PDGF-BB-induced HBVPs proliferation; assay type: cell-based; conditions: Homo sapiens, 48 h, read-out: IC50 HBVPs
[4] = test system: HUVECs; experiment: HUVEC tube formation assay; assay type: cell-based, human; conditions: induced by 50 ng/mL hVEGF-165; 0.5 and 5.0 μmol/L; vs. hVEGF-165 control, P < 0.01
[5] = test system: HUVECs; experiment: Transwell invasion assay; assay type: cell-based, human; conditions: driven by 50 ng/mL hVEGF-165; dose-dependent; 0.5 μmol/L P < 0.01; 5.0 and 50.0 μmol/L P < 0.001
[6] = test system: phosphorylation of VEGFR2 and ERK; experiment: Western blot, VEGF/VEGFR2/ERK signalling in HUVECs; assay type: cell-based, human; conditions: 5.0 μmol/L; induced by 50 ng/mL hVEGF 165 in HUVECs; P < 0.01
[7] = test system: phosphorylation of PDGFRβ and ERK; experiment: Western blot, PDGF/PDGFRβ/ERK signalling in HBVPs; assay type: cell-based, human; conditions: 0.5 and 5.0 μmol/L; induced by 50 ng/mL PDGF-BB in HBVPs
[8] = test system: phosphorylation of FGFR1‒4 and ERK; experiment: Western blot, FGF/FGFRs/ERK signalling in HUVECs; assay type: cell-based, human; conditions: 5.0 μmol/L; induced by 50 ng/mL bFGF in HUVECs; P < 0.01
[9] = test system: CT26 colon adenocarcinoma cells; experiment: Tumor xenograft model in transgenic zebrafish; assay type: in vivo; conditions: 0.5 and 2.0 μmol/L in fish water, 7 days
[10] = test system: A549 lung cancer xenograft; experiment: A549 lung cancer subcutaneous xenograft model; assay type: in vivo, Balb/c nude mice; conditions: for T/C / TGI: Day 21; for Tumor volume at Day 21 / area of CD31 (tumor micro-vessel density, IHC): mean ± SEM; for area of CD31 (tumor micro-vessel density, IHC): n = 3, control 3.38 ± 0.49
[11] = test system: NCI-H520 lung cancer xenograft; experiment: NCI-H520 lung cancer subcutaneous xenograft model; assay type: in vivo, Balb/c nude mice; conditions: for T/C / TGI: Day 21; for Tumor volume at Day 21 / area of CD31 (tumor micro-vessel density, IHC): mean ± SEM; for area of CD31 (tumor micro-vessel density, IHC): n = 3, control 4.96 ± 0.62
[12] = Pharmacokinetic study in rats; assay type: in vivo; conditions: both, Sprague-Dawley, rat, plasma
[13] = Pharmacokinetic study in beagles; assay type: in vivo; conditions: both, beagle, dog, plasma
[14] = H&E staining of vital organs of treated mice; assay type: in vivo, nude mice; conditions: 100 and 200 mg/kg, p.o., QD × 3 weeks
[15] = test system: HUVECs; conditions: 5.0 μmol/L (P < 0.05), 50.0 μmol/L (P < 0.001) vs. hVEGF-165 treated control
[16] = biological target: VEGFR3 (Homo sapiens, UniProt P35916); experiment: Z′-LYTE kinase inhibition assay
[17] = biological target: FGFR2 (Homo sapiens, UniProt P21802); experiment: Z′-LYTE kinase inhibition assay
[18] = biological target: CAMK2α (Homo sapiens, UniProt Q9UQM7); experiment: Z′-LYTE kinase inhibition assay
[19] = biological target: CDK2 (Homo sapiens, UniProt P24941); experiment: Z′-LYTE kinase inhibition assay
[20] = biological target: CHK1 (Homo sapiens, UniProt O14757); experiment: Z′-LYTE kinase inhibition assay
[21] = biological target: CK1α (Homo sapiens, UniProt P48729); experiment: Z′-LYTE kinase inhibition assay
[22] = biological target: DYRK3 (Homo sapiens, UniProt O43781); experiment: Z′-LYTE kinase inhibition assay
[23] = biological target: EphA2 (Homo sapiens, UniProt P29317); experiment: Z′-LYTE kinase inhibition assay
[24] = biological target: GSK3β (Homo sapiens, UniProt P49841); experiment: Z′-LYTE kinase inhibition assay
[25] = biological target: MAP4K4 (Homo sapiens, UniProt O95819); experiment: Z′-LYTE kinase inhibition assay
[26] = biological target: JAK2 (Homo sapiens, UniProt O60674); experiment: Z′-LYTE kinase inhibition assay
[27] = biological target: JNK1 (Homo sapiens, UniProt P45983); experiment: Z′-LYTE kinase inhibition assay
[28] = biological target: MAPKAPK2 (Homo sapiens, UniProt P49137); experiment: Z′-LYTE kinase inhibition assay
[29] = biological target: MST4 (Homo sapiens, UniProt Q9P289); experiment: Z′-LYTE kinase inhibition assay
[30] = biological target: p38α (Homo sapiens, UniProt Q16539); experiment: Z′-LYTE kinase inhibition assay
[31] = biological target: PDK1 (Homo sapiens, UniProt O15530); experiment: Z′-LYTE kinase inhibition assay
[32] = biological target: PKA (Homo sapiens, UniProt P17612); experiment: Z′-LYTE kinase inhibition assay
[33] = biological target: SRC (Homo sapiens, UniProt P12931); experiment: Z′-LYTE kinase inhibition assay
[34] = biological target: TAOK2 (Homo sapiens, UniProt Q9UL54); experiment: Z′-LYTE kinase inhibition assay
[35] = biological target: VEGFR2 (Homo sapiens, UniProt P35968); experiment: Z′-LYTE kinase inhibition assay
[36] = biological target: FGFR1 (Homo sapiens, UniProt P11362); experiment: Z′-LYTE kinase inhibition assay
[37] = biological target: PDGFRβ (Homo sapiens, UniProt P09619); experiment: Z′-LYTE kinase inhibition assay

Sequence of VEGFR3 (P35916 25-1363): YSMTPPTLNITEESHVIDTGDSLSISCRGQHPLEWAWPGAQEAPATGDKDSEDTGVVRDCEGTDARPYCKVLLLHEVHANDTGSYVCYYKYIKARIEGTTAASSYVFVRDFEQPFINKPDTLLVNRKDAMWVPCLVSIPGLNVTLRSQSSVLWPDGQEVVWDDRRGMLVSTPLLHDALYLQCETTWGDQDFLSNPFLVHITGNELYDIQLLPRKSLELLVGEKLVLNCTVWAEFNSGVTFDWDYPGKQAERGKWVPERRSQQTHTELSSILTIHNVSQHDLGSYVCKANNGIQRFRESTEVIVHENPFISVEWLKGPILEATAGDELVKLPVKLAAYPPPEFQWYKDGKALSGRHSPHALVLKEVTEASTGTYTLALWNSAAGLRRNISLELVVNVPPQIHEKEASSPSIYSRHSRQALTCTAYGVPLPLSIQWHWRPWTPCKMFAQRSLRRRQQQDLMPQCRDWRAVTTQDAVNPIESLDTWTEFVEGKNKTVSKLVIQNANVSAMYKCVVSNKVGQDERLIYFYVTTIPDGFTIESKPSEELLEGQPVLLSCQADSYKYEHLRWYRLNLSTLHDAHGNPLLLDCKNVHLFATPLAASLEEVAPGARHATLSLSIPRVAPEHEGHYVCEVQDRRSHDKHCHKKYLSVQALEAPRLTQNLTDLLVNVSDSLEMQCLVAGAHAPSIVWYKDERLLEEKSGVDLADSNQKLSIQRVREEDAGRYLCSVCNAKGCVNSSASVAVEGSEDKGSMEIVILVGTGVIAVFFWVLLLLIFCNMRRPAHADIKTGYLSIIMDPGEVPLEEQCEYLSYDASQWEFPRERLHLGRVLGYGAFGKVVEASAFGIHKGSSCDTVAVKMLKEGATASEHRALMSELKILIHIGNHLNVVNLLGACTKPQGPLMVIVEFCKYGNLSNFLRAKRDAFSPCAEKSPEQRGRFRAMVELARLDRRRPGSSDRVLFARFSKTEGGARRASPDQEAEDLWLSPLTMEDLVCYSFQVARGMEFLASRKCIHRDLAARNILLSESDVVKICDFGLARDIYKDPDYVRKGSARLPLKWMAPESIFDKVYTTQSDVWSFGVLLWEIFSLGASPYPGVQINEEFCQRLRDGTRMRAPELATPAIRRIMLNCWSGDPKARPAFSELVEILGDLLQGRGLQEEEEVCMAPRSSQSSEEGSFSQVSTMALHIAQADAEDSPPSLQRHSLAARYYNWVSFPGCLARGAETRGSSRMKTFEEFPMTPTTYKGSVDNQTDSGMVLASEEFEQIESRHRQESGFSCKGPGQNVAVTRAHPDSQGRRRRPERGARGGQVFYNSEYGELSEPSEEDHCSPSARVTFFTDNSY
Sequence of TAOK2 (Q9UL54 whole entry): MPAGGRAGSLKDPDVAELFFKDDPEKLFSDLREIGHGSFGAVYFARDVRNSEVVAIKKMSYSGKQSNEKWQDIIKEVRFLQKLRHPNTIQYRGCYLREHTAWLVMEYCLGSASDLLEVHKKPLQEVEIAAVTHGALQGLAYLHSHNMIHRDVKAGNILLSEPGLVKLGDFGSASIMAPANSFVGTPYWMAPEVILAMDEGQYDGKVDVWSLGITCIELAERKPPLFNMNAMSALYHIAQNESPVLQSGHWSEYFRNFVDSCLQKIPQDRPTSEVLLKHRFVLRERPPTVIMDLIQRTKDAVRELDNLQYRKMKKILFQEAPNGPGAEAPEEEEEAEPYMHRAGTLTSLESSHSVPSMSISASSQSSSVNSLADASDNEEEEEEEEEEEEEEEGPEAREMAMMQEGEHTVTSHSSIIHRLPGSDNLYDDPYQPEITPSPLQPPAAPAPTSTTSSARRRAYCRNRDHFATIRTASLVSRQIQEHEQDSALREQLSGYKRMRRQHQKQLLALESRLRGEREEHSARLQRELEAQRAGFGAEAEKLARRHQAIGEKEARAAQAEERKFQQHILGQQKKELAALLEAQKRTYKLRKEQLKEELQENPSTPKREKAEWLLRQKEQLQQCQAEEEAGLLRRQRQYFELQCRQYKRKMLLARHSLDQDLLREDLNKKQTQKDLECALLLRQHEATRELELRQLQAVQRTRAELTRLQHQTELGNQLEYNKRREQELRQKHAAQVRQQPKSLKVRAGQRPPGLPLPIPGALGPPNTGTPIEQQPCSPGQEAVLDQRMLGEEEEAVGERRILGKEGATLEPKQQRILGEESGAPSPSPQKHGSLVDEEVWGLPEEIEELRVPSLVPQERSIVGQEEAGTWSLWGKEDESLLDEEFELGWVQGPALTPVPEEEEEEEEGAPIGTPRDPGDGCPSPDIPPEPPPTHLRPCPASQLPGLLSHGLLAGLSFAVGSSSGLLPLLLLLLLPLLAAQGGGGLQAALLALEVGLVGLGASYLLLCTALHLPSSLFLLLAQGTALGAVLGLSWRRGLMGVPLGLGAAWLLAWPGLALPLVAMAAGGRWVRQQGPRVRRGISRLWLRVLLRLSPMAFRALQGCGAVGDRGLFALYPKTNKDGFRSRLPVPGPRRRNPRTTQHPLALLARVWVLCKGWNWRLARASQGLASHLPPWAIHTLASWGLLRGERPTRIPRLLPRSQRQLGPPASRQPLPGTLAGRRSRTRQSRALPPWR
Sequence of JAK2 (O60674 whole entry): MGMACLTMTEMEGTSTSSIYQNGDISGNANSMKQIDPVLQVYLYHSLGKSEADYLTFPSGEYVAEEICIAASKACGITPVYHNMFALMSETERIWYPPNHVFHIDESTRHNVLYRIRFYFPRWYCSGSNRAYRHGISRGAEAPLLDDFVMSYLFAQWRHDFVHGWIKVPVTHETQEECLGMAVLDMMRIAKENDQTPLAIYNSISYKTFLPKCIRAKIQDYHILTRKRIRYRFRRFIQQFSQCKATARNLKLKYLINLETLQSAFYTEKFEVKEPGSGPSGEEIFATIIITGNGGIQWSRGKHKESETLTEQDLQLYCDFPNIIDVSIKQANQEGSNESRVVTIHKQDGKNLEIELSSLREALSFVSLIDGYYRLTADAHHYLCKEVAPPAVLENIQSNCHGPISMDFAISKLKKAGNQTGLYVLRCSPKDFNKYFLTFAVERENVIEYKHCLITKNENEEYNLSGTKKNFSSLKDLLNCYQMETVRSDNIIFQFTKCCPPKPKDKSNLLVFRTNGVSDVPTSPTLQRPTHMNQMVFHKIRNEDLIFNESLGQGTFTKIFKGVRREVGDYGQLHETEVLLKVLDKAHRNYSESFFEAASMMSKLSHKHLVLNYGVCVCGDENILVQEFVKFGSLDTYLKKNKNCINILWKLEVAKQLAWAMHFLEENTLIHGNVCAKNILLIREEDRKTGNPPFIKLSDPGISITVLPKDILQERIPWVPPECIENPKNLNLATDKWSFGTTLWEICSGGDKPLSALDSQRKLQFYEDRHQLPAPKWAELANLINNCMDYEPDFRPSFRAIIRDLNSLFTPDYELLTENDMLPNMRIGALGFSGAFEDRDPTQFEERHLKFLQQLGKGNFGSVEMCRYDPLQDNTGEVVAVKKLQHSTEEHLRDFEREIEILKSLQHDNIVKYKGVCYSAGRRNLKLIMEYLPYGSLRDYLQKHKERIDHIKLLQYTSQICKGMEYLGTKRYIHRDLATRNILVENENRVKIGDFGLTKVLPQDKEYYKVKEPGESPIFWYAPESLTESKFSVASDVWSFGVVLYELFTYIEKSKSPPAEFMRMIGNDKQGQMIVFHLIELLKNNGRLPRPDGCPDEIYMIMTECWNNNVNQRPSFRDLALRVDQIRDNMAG
Sequence of FGFR1 (P11362 22-822): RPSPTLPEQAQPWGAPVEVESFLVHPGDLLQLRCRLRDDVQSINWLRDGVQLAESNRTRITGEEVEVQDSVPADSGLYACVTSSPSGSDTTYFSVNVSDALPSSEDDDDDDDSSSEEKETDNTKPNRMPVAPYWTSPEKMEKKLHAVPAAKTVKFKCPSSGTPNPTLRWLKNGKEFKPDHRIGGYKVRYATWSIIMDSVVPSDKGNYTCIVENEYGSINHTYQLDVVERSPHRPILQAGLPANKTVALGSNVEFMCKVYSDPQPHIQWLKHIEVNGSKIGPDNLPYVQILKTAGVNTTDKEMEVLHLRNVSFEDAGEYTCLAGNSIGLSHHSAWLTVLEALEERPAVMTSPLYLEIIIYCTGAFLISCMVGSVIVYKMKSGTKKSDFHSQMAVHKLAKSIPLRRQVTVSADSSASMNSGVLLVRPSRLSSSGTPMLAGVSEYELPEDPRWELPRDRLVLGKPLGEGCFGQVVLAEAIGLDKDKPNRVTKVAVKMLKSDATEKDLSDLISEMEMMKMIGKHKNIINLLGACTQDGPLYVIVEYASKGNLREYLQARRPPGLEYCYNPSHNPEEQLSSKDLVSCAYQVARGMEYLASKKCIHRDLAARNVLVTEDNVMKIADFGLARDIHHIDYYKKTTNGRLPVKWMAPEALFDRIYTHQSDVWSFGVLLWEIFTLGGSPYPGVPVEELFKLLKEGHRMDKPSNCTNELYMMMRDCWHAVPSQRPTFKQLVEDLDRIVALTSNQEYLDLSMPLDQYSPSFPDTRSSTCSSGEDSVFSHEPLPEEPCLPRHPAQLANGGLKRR
Sequence of SRC (P12931 whole entry): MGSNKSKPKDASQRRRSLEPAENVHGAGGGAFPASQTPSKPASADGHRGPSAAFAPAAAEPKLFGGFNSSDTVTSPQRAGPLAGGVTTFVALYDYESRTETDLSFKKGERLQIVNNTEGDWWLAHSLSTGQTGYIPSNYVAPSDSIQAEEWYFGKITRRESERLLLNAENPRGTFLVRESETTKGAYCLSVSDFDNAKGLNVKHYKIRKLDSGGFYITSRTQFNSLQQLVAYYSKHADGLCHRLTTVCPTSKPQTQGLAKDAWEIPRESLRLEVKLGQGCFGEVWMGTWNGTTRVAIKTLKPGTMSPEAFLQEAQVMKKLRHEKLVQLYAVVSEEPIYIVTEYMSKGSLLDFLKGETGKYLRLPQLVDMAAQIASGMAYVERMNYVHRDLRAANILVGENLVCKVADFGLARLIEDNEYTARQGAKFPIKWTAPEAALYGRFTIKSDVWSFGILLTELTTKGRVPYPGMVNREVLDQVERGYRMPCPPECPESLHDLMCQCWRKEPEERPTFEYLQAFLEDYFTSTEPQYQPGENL

## CNC(=O)c1cc(Oc2ccc(NC(=O)Nc3ccc(Cl)c(C(F)(F)F)c3)cc2)ccn1 [Sorafenib, reference compound]
[1]; 60 mg/kg oral QD
  T/C: 31%
  TGI: 80%
[1]; 60 mg/kg oral QD, mean ± SEM
  Tumor volume at Day 21: 304 ± 73 mm^3

## COc1cc2nccc(Oc3ccc(NC(=S)NC4CC4)c(Cl)c3F)c2cc1C(N)=O [WXFL-152, 4-(3-Chloro-4-(3-cyclopropylthioureido)-2-fluorophenoxy)-7-methoxyquinoline-6-carboxamide]
[2]
  IC50: 71 nM
[3]
  IC50: 1940 nM
[4]
  tube formation of HUVECs: significantly suppressed
[5]
  invasion of HUVECs: significantly inhibited
[6]
  phosphorylation of VEGFR2 and ERK: significantly suppressed
[7]
  phosphorylation of PDGFRβ and ERK: significantly blocked
[8]
  phosphorylation of FGFR1‒4 and ERK: significantly inhibited
[9]
  tumor angiogenesis and tumor size in zebrafish xenograft: few tumors exhibiting angiogenesis and small tumors
[10]; 50 mg/kg p.o. QD
  T/C: 29%
  TGI: 78%
  Tumor volume at Day 21: 430 ± 42 mm^3
[10]; 50 mg/kg
  area of CD31 (tumor micro-vessel density, IHC): 2.20 ± 0.29
[10]; 100 mg/kg p.o. QD
  T/C: 27%
  TGI: 80%
  Tumor volume at Day 21: 401 ± 38 mm^3
[10]; 100 mg/kg
  area of CD31 (tumor micro-vessel density, IHC): 1.27 ± 0.48
[11]; 50 mg/kg p.o. QD
  T/C: 58%
  TGI: 51%
  Tumor volume at Day 21: 704 ± 107 mm^3
[11]; 50 mg/kg
  area of CD31 (tumor micro-vessel density, IHC): 1.96 ± 0.05
[11]; 100 mg/kg p.o. QD
  T/C: 36%
  TGI: 72%
  Tumor volume at Day 21: 478 ± 85 mm^3
[11]; 100 mg/kg
  area of CD31 (tumor micro-vessel density, IHC): 1.83 ± 0.26
[1]; liver PDX model, 200 mg/kg, mean ± SEM, n = 3, control 0.30 ± 0.10
  area of CD31 (tumor micro-vessel density, IHC): 0.19 ± 0.06
[1]; 200 mg/kg oral QD
  T/C: 35%
  TGI: 76%
[1]; 200 mg/kg oral QD, mean ± SEM
  Tumor volume at Day 21: 334 ± 69 mm^3
[12]; iv, 3 mg/kg
  AUC(0-inf): 35.2 ± 8.3 µM·h
  AUC(0-t): 35 ± 8.2 µM·h
  Cmax: 40.4 ± 3 µM
  Vd: 0.26 ± 0.05 L/kg
  clearance: 3.24 ± 0.81 mL/min/kg
  half-life: 1.18 ± 0.18 h
[12]; po, 15 mg/kg
  AUC(0-inf): 77.7 ± 39.6 µM·h
  AUC(0-t): 74.6 ± 36.3 µM·h
  Cmax: 26 ± 13.3 µM
  Tmax: 0.58 ± 0.2 h
  bioavailability: 42%
  half-life: 2.21 ± 0.39 h
[12]; po, 50 mg/kg
  AUC(0-inf): 110 ± 84.9 µM·h
  AUC(0-t): 110 ± 84.9 µM·h
  Cmax: 32.3 ± 11.3 µM
  Tmax: 0.54 ± 0.25 h
  bioavailability: 18.7%
  half-life: 2 ± 0.55 h
[12]; po, 50 mg/kg/day
  AUC(0-inf): 151 ± 63.5 µM·h
  AUC(0-t): 160 ± 60.3 µM·h
  Cmax at 7 days: 46.5 ± 13.9 µM
  Tmax at 7 days: 1.42 ± 0.67 h
  half-life at 7 days: 2.17 ± 0.55 h
[12]; po, 150 mg/kg
  AUC(0-inf): 233 ± 158 µM·h
  AUC(0-t): 232 ± 158 µM·h
  Cmax: 48.7 ± 9.5 µM
  Tmax: 1.58 ± 2.26 h
  bioavailability: 13%
  half-life: 2.54 ± 0.8 h
[13]; iv, 2 mg/kg
  AUC(0-inf): 5.13 ± 0.9 µM·h
  AUC(0-t): 5.1 ± 0.9 µM·h
  Cmax: 4.36 ± 0.96 µM
  Vd: 1.45 ± 0.33 L/kg
  clearance: 14.5 ± 2.74 mL/min/kg
  half-life: 4.91 ± 2.18 h
[13]; po, 10 mg/kg
  AUC(0-inf): 20.2 ± 20.2 µM·h
  AUC(0-t): 19.6 ± 20.2 µM·h
  Cmax: 6.28 ± 6.57 µM
  Tmax: 1.25 ± 0.612 h
  bioavailability: 76.9%
  half-life: 5.77 ± 2.17 h
[13]; po, 30 mg/kg
  AUC(0-inf): 51.8 ± 62.3 µM·h
  AUC(0-t): 50 ± 58.8 µM·h
  Cmax: 16.2 ± 16.5 µM
  Tmax: 0.917 ± 0.585 h
  bioavailability: 65.4%
  half-life: 5.25 ± 1.03 h
[13]; po, 30 mg/kg/day
  AUC(0-inf): 37.9 ± 31.9 µM·h
  AUC(0-t): 23.7 ± 16.1 µM·h
  Cmax at 7 days: 6.97 ± 5.26 µM
  Tmax at 7 days: 1.08 ± 0.736 h
  half-life: 12.3 ± 12.6 h
[13]; po, 100 mg/kg
  AUC(0-inf): 230 ± 51.5 µM·h
  AUC(0-t): 199 ± 90.5 µM·h
  Cmax: 47.8 ± 20.8 µM
  Tmax: 2.33 ± 0.816 h
  bioavailability: 78%
  half-life: 2.99 ± 0.7 h
[14]
  pathologic changes in heart, liver, spleen, lung and kidney (H&E): No significant pathologic changes
[15]
  migration of HUVECs (wound healing): appreciably inhibited
[16]
  IC50: 8.5 nM
[17]
  IC50: 15.5 nM
[18]
  IC50: > 10000 nM
[19]
  IC50: > 10000 nM
[20]
  IC50: > 10000 nM
[21]
  IC50: > 10000 nM
[22]
  IC50: > 10000 nM
[23]
  IC50: > 3330 nM
[24]
  IC50: > 10000 nM
[25]
  IC50: 79 nM
[26]
  IC50: > 10000 nM
[27]
  IC50: > 10000 nM
[28]
  IC50: > 10000 nM
[29]
  IC50: > 10000 nM
[30]
  IC50: > 3330 nM
[31]
  IC50: > 10000 nM
[32]
  IC50: > 10000 nM
[33]
  IC50: 2650 nM
[34]
  IC50: > 10000 nM

## COc1cc2nccc(Oc3ccc(NC(=S)NC4CC4)c(Cl)c3)c2cc1C(N)=O [WXFL-255, 4-(3-chloro-4-(3-cyclopropylthioureido)phenoxy)-7-methoxyquinoline-6-carboxamide]
[2]
  IC50: 90.2 nM
[35]
  IC50: 9.4 nM
[36]
  IC50: 188 nM
[37]
  IC50: 143 nM
